Data published in US20180311342A1, “IMMUNOSTIMULATING AGENT” (AJINOMOTO CO., INC., priority 2017, published 2018).

Experiments:
[1] = test system: anti-OVA-specific IgG1 and IgG2a subclass antibody / anti-OVA-specific IgE antibody; assay: Effective Index: index for adjuvant enhancing antibody production and not inducing allergy (IgG1 or IgG2a / IgE, relative to Addavax = 1.0); type: in vivo, BALB/c mice
Description: The serum samples obtained in Experimental Example 1 were evaluated for utilizability as an adjuvant to cause enhancement of antibody production by each compound and not induce allergy based on the following index (Effective Index). Whether each compound can be used as an adjuvant to cause enhancement of antibody production and not induce allergy was also evaluated in the same manner in the following Experimental Examples 2-10.
It is a problem that Addavax™ potentiates antigen-specific antibody production but induces allergy. Therefore, the index for adjuvant not inducing allergy (Effective Index) was defined as follows, and an index of each administration group in Experimental Examples 1-10 was calculated. That is, a value obtained by dividing mean of the concentrations of anti-OVA-specific IgG1 subclass antibody and anti-OVA-specific IgG2a subclass antibody of each group by mean of anti-OVA-specific IgE antibody concentration of each group was relatively compared with a value obtained by dividing mean of the concentrations of anti-OVA-specific IgG1 subclass antibody and anti-OVA-specific IgG2a subclass antibody of Addavax™ administration group by mean of anti-OVA-specific IgE antibody concentration of Addavax™ administration group as 1.0.

[2] = test system: anti-OVA-specific IgE antibody; assay: Allergy inducing activity test: anti-OVA-specific IgE antibody in serum of OVA-immunized mice (DS mouse IgE ELISA (OVA) kit); type: in vivo, BALB/c mice; settings: for anti-OVA-specific IgE antibody production: Experimental Example 4: after secondary immunization, compound 0.256 μmol dissolved in saline (no αCD)
[3] = after secondary immunization, compound in 5% αCD-added saline, IgG1/IgE and IgG2a/IgE production amounts relative to Addavax administration group (1.0)

SMILES | Effective Index [1, 3] | Effective Index ([1]; Experimental Example 4: after secondary immunization, compound dissolved in saline, IgG1/IgE and IgG2a/IgE relative to Addavax administration group (1.0)) | anti-OVA-specific IgE antibody production ([2]; compared to Addavax administration group) | anti-OVA-specific IgE antibody production ([2]; compared to OVA single administration group) | allergy inducing activity as compared to Addavax ([2]; Experimental Example 4: conclusion from IgE after secondary immunization, compound dissolved in saline)
CCCCCCCCCCCCCCCC(=O)N[C@@H](CCCCN)C(=O)NCCCCCCCCCCCC.Cl [SZ153, N-[(1S)-5-amino-1-(dodecylcarbamoyl)pentyl]hexadecanamide hydrochloride] | > 1.0 |  |  |  | 
CCCCCCCCCCCCCCCC(=O)N[C@@H](CCCNC(=N)N)C(=O)NCCCCCCCCCCCC.Cl [SZ111, N-[(1S)-1-(dodecylcarbamoyl)-4-guanidino-butyl]hexadecanamide hydrochloride] | > 1.0 | > 1.0 | lower | significantly increased | may have a lower allergy inducing activity
